In test [1] the target is T1, human GPR40 receptor (Homo sapiens, UniProt O14842). Kind of test: IP1 accumulation measurements using the IPOne assay system. Format: cell-based. The conditions noted are these: IP1 accumulation (IPOne HTRF), 1 hour stimulation; 1321N1 cells stably expressing human GPR40; read-out: EC50 values on GPR40 determined as described in (B). The gist of the method:
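1321N1 cells stably expressing human GPR40 were stimulated with compounds for 1 h at 37° in pH 7.4 HEPES buffer with 50 mM final LiCl. IP1 accumulation was then read by HTRF (IP1-d2/anti-IP1 Tb cryptate) after 1 h lysis at room temperature.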

Test [2] has as its target T1, human GPR40 receptor. Kind of test: Cytosolic calcium measurement using the FLIPR system. Format: cell-based. Conditions: FLIPR cytosolic Ca2+ peak height; 1321N1 cells stably expressing human GPR40; read-out: EC50 values on GPR40 determined as described in (A). Here is the method:
(A) Cytosolic calcium measurement using the FLIPR system—1321N1 cells stably expressing human GPR40 receptor (Euroscreen, Belgium) were seeded 24 h before the assay in black clear-bottom collagen-coated 384-well plates in culture medium containing 10% FCS, 1% Na-Pyruvate and 400 μg/ml G418. On the assay day, wells were washed twice with 100 μL Krebs Ringer Buffer (KRB) containing 15 mM sodium hydrogencarbonate and 30 mM Hepes leaving 20 μl rest volume per well. Prior to stimulation the cells were loaded with the Ca^2+-sensitive fluorescent dye from the Calcium4 Assay Kit™ according to the Manufacturer's description (MDS Analytical technologies, Ismaning, Germany) for 80 min at room temperature in the dark, in the presence of 4 mM probenicid. Changes in cytosolic Ca^2+ concentration upon compound addition were monitored using a FLIPR Tetra device (Fluorescence Imaging Plate Reader; MDS Analytical technologies). The peak height of the obtained fluorescence signal was then used to calculate the EC50 values using GraphPad Prism 5 (Graphpad Software Inc, USA) using a sigmoidal curve fitting procedure allowing for a variable hill slope.

Each structure is given as a SMILES string.

T1 sequence (O14842 whole entry): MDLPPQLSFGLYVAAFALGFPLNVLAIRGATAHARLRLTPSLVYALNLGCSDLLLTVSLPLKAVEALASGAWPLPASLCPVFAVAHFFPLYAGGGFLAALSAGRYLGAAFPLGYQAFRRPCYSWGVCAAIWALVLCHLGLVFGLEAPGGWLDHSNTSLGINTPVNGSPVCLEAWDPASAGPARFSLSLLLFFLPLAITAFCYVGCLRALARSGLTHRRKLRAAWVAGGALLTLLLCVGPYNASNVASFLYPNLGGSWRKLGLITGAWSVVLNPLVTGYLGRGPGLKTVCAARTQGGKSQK

`O=C(O)CC1COc2cc(O[C@@H]3CCc4c(Br)cccc43)ccc21` (mixture of isomers) [Example 6, {6-[(R)-4-Bromo-indan-1-yloxy]-2,3-dihydro-benzofuran-3-yl}-acetic acid]: the figures for the EC50 on human GPR40 receptor [1] and at human GPR40 receptor [2] were 62 nM and 49 nM, respectively.
Turning to `O=C(O)C[C@@H]1COc2cc(O[C@@H]3CCc4c(OC(F)F)cccc43)ccc21` [Example 17, {(S)-6-[(R)-4-Difluoromethoxy-indan-1-yloxy]-2,3-dihydro-benzofuran-3-yl}-acetic acid], the results for the EC50 on human GPR40 receptor [1] and at human GPR40 receptor [2] were 139 nM and 111 nM, respectively.
On the same counts, the results for `COC(c1cccc2c1CCC2Oc1ccc2c(c1)OCC2CC(=O)O)C(F)F` (stereo not shown) [Example 11, {6-[4-(2,2-Difluoro-1-methoxy-ethyl)-indan-1-yloxy]-2,3-dihydro-benzofuran-3-yl}-acetic acid] are 2230 nM and 628 nM.
In the case of `O=C(O)CC1COc2cc(O[C@@H]3CCc4c(C5=CCOCC5)cccc43)ccc21` (stereo partly drawn) [Example 8, {6-[(R)-4-(3,6-Dihydro-2H-pyran-4-yl)-indan-1-yloxy]-2,3-dihydro-benzofuran-3-yl}-acetic acid], the results for the EC50 at human GPR40 receptor [1] and on human GPR40 receptor [2] were 1570 nM and 312 nM, respectively.
The corresponding values for `O=C(O)CC1COc2cc(OC3CCc4c3cccc4C(F)(F)F)ccc21` (mixture of isomers) [Example 1, [6-(4-Trifluoromethyl-indan-1-yloxy)-2,3-dihydro-benzofuran-3-yl]-acetic acid] are 69 nM and 50 nM.

As a reminder, the EC50 is the midpoint of the concentration-response curve.

For the origin of these results see patent US20120302566A1, “INDANYLOXYDIHYDROBENZOFURANYLACETIC ACIDS” (BOEHRINGER INGELHEIM INTERNATIONAL GMBH, priority 2010, published 2012).
